Values quoted from earlier work in PMC9516332 (Frontiers in Oncology, 2022).
Where two headings read alike, the source gives them in different places.

Tests used:
Conditions in all cases: cited from earlier work
[1] = biological target: T1, panel of 255 wild-type kinases (Homo sapiens, UniProt Q8TF76)
T1 sequence (Q8TF76 1-798): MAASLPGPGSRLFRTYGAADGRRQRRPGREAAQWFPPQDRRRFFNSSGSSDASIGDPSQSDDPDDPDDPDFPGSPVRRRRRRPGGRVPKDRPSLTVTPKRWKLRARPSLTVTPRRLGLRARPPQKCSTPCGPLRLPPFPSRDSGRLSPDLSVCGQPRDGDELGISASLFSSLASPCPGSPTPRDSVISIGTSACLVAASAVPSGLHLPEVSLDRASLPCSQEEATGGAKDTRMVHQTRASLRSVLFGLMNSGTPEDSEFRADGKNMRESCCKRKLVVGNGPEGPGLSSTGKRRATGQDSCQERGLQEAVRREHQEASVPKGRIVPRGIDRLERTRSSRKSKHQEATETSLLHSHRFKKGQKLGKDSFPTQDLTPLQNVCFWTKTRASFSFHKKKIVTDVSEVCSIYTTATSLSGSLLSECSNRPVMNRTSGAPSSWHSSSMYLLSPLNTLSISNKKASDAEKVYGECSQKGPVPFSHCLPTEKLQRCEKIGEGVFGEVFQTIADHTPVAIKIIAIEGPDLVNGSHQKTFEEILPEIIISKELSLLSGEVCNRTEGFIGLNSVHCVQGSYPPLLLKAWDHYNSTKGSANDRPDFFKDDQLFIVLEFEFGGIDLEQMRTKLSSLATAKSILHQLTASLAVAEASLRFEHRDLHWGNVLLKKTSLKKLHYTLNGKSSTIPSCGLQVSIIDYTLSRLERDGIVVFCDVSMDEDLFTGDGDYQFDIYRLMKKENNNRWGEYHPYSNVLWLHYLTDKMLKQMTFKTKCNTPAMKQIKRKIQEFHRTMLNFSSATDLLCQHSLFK

[2] = biological target: T2, panel of 255 wild-type kinases (Homo sapiens, UniProt Q05513)
T2 sequence (Q05513 1-592): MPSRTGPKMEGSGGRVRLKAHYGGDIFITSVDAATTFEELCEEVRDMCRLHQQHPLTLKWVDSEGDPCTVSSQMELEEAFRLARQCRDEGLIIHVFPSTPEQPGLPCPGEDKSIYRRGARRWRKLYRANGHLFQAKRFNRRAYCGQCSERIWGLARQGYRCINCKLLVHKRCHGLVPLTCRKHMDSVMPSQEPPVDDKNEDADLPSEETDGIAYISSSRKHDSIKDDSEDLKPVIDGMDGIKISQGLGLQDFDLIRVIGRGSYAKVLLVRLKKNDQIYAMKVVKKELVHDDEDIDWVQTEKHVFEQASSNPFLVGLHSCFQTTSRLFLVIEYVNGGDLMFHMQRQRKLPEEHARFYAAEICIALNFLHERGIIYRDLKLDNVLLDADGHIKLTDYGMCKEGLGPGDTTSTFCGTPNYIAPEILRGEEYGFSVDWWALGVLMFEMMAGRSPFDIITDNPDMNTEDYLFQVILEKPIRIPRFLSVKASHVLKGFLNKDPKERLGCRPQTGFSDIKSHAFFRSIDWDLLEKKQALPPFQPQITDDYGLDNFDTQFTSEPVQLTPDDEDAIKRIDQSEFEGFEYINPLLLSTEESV

[3] = biological target: panel of 255 wild-type kinases (Homo sapiens, UniProt P42684)
[4] = biological target: panel of 255 wild-type kinases (Homo sapiens, UniProt Q15208)
[5] = biological target: panel of 255 wild-type kinases (Homo sapiens, UniProt Q16620)
[6] = biological target: panel of 255 wild-type kinases (Homo sapiens, UniProt Q9H4A3)
[7] = biological target: panel of 255 wild-type kinases (Homo sapiens, UniProt Q9UKE5)
[8] = biological target: panel of 255 wild-type kinases (Homo sapiens, UniProt Q9H2G2)
[9] = biological target: panel of 255 wild-type kinases (Homo sapiens, UniProt P17948)
[10] = biological target: panel of 255 wild-type kinases (Homo sapiens, UniProt P51617)
[11] = kinase Haspin, 1 µmol/L single concentration, ref DOI: 10.1158/1535-7163.MCT-18-0877
[12] = kinase PKCζ, 1 µmol/L single concentration, ref DOI: 10.1158/1535-7163.MCT-18-0877
[13] = ARG kinase assay, 1 µmol/L single concentration, ref DOI: 10.1158/1535-7163.MCT-18-0877
[14] = NDR1, 1 µmol/L single concentration, ref DOI: 10.1158/1535-7163.MCT-18-0877
[15] = kinase TRKB, 1 µmol/L single concentration, ref DOI: 10.1158/1535-7163.MCT-18-0877
[16] = kinase WNK1, 1 µmol/L single concentration, ref DOI: 10.1158/1535-7163.MCT-18-0877
[17] = kinase TNIK, 1 µmol/L single concentration, ref DOI: 10.1158/1535-7163.MCT-18-0877
[18] = kinase SLK, 1 µmol/L single concentration, ref DOI: 10.1158/1535-7163.MCT-18-0877
[19] = kinase FLT1, 1 µmol/L single concentration, ref DOI: 10.1158/1535-7163.MCT-18-0877
[20] = kinase IRAK1, 1 µmol/L single concentration, ref DOI: 10.1158/1535-7163.MCT-18-0877
[21] = kinase Haspin, 1 µmol/L single concentration, ref DOI: 10.1371/journal.pone.0092146
[22] = kinase PKCζ, 1 µmol/L single concentration, ref DOI: 10.1371/journal.pone.0092146
[23] = ARG kinase assay, 1 µmol/L single concentration, ref DOI: 10.1371/journal.pone.0092146
[24] = NDR1, 1 µmol/L single concentration, ref DOI: 10.1371/journal.pone.0092146
[25] = kinase TRKB, 1 µmol/L single concentration, ref DOI: 10.1371/journal.pone.0092146
[26] = kinase WNK1, 1 µmol/L single concentration, ref DOI: 10.1371/journal.pone.0092146
[27] = kinase SLK, 1 µmol/L single concentration, ref DOI: 10.1371/journal.pone.0092146
[28] = kinase FLT1, 1 µmol/L single concentration, ref DOI: 10.1371/journal.pone.0092146
[29] = kinase IRAK1, 1 µmol/L single concentration, ref DOI: 10.1371/journal.pone.0092146
[30] = kinase TNIK, 1 µmol/L single concentration, ref DOI: 10.1371/journal.pone.0092146

Row | SMILES | %-inhibition at 1 µmol/L, Haspin [1, 11] | %-inhibition at 1 µmol/L, PKCζ [2, 12] | %-inhibition ARG [3, 13] | %-inhibition, NDR1 [4, 14] | %-inhibition at 1 µmol/L, TRKB [5, 15] | %-inhibition at 1 µmol/L, WNK1 [6, 16] | %-inhibition at 1 µmol/L, TNIK [7, 17] | %-inhibition at 1 µmol/L, SLK [8, 18] | %-inhibition at 1 µmol/L, FLT1 [9, 19] | %-inhibition at 1 µmol/L, IRAK1 [10, 20] | other results
1 | CC#CC(=O)N1CCC[C@H]1c1nc(-c2ccc(C(=O)Nc3ccccn3)cc2)c2c(N)nccn12 [acalabrutinib] | 5.31% | -5.44% | 3.53% | -6.32% | 14% | 5.36% | -0.812% | 1.61% | -1.14% | -7% | 
2 | CCc1cc2c(cc1N1CCC(N3CCOCC3)CC1)C(C)(C)c1[nH]c3cc(C#N)ccc3c1C2=O [alectinib] | 8% | 10% | 1% | 1.29% | 38% | 6% | 31% | 12% | 2.23% | 92% | 
3 | COc1cc(N2CCC(N3CCN(C)CC3)CC2)ccc1Nc1ncc(Cl)c(Nc2ccccc2P(C)(C)=O)n1 [brigatinib] |  |  |  |  |  |  |  |  |  |  | %-inhibition at 1 µmol/L, Haspin [1]: 9%; %-inhibition at 1 µmol/L, PKCζ [2]: 5%; %-inhibition ARG [3]: 55%; %-inhibition, NDR1 [4]: 63%; %-inhibition at 1 µmol/L, TRKB [5]: 27%; %-inhibition at 1 µmol/L, WNK1 [6]: 5%; %-inhibition at 1 µmol/L, TNIK [7]: 19%; %-inhibition at 1 µmol/L, SLK [8]: 95%; %-inhibition at 1 µmol/L, FLT1 [9]: 74%; %-inhibition at 1 µmol/L, IRAK1 [10]: 69%
4 | Cc1cc(Nc2ncc(Cl)c(Nc3ccccc3S(=O)(=O)C(C)C)n2)c(OC(C)C)cc1C1CCNCC1 [ceritinib] | 7% | 14% | -1.08% | 15% | 20% | 4.45% | 25% | 64% | 16% | 9% | 
5 | O=C(c1ccc(F)c(F)c1Nc1ccc(I)cc1F)N1CC(O)([C@@H]2CCCCN2)C1 [cobimetinib] | 8% | 9% | -1.54% | 2.53% | -1.39% | -0.124% | 1.06% | 6% | -0.349% | 0.65% | 
6 | C[C@@H](Oc1cc(-c2cnn(C3CCNCC3)c2)cnc1N)c1c(Cl)ccc(F)c1Cl [crizotinib] |  |  |  |  |  |  |  |  |  |  | %-inhibition at 1 µmol/L, Haspin [1, 21]: 7%; %-inhibition at 1 µmol/L, PKCζ [2, 22]: 9%; %-inhibition ARG [3, 23]: 80%; %-inhibition, NDR1 [4, 24]: -1.48%; %-inhibition at 1 µmol/L, TRKB [5, 25]: 102%; %-inhibition at 1 µmol/L, WNK1 [6, 26]: -3%; %-inhibition at 1 µmol/L, TNIK [7]: 11%; %-inhibition at 1 µmol/L, SLK [8, 27]: 100%; %-inhibition at 1 µmol/L, FLT1 [9, 28]: 53%; %-inhibition at 1 µmol/L, IRAK1 [10, 29]: 92%
7 | CC(C)(C)c1nc(-c2cccc(NS(=O)(=O)c3c(F)cccc3F)c2F)c(-c2ccnc(N)n2)s1 [dabrafenib] |  |  |  |  |  |  |  |  |  |  | %-inhibition at 1 µmol/L, Haspin [1, 21]: 9%; %-inhibition at 1 µmol/L, PKCζ [2, 22]: 5%; %-inhibition ARG [3, 23]: 54%; %-inhibition, NDR1 [4, 24]: -0.891%; %-inhibition at 1 µmol/L, TRKB [5, 25]: 86%; %-inhibition at 1 µmol/L, WNK1 [6, 26]: 1.14%; %-inhibition at 1 µmol/L, TNIK [7, 30]: 15%; %-inhibition at 1 µmol/L, SLK [8, 27]: 12%; %-inhibition at 1 µmol/L, FLT1 [9, 28]: 62%; %-inhibition at 1 µmol/L, IRAK1 [10, 29]: -48%
8 | C=CC(=O)N1CCC[C@@H](n2nc(-c3ccc(Oc4ccccc4)cc3)c3c(N)ncnc32)C1 [ibrutinib] | 2.53% | 10% | 7% | 2.65% | 26% | 2.3% | -1.62% | 12% | 73% | -11% | 
9 | CO[C@@H]1[C@H](N(C)C(=O)c2ccccc2)C[C@H]2O[C@]1(C)n1c3ccccc3c3c4c(c5c6ccccc6n2c5c31)C(=O)NC4 [midostaurin] | 31% | -3.41% | 25% | 31% | 99% | 5.36% | 94% | 85% | 95% | 10% | 
10 | C=CC(=O)Nc1cc(Nc2nccc(-c3cn(C)c4ccccc34)n2)c(OC)cc1N(C)CCN(C)C [osimertinib] | 14% | 9.52% | 5.35% | 13% | -0.7% | -1.88% | 84% | 17% | 9% | 7% | 
11 | CC(=O)Nc1cccc(-n2c(=O)n(C3CC3)c(=O)c3c(Nc4ccc(I)cc4F)n(C)c(=O)c(C)c32)c1 [trametinib] |  |  |  |  |  |  |  |  |  |  | %-inhibition at 1 µmol/L, Haspin [1, 21]: 5%; %-inhibition at 1 µmol/L, PKCζ [2, 22]: 4.31%; %-inhibition ARG [3, 23]: -4%; %-inhibition, NDR1 [4, 24]: -1.68%; %-inhibition at 1 µmol/L, TRKB [5, 25]: -3.4%; %-inhibition at 1 µmol/L, WNK1 [6, 26]: -1.42%; %-inhibition at 1 µmol/L, TNIK [7, 30]: 3%; %-inhibition at 1 µmol/L, SLK [8, 27]: -2.6%; %-inhibition at 1 µmol/L, FLT1 [9, 28]: -2.75%; %-inhibition at 1 µmol/L, IRAK1 [10, 29]: 6%
